The test system of data set [1] is human histiocytic lymphoma cell line (U937). In words: U937 cell proliferation assay (methyl-3H thymidine incorporation). The format is cell-based. To be noted: Homo sapiens, U-937, U937 cells; test compound 6 μM; 72 hours in culture, 3 hours pulse; control DMSO 0.08%; n=6. The method, then: The compounds of examples 1 to 10 were tested the following cell proliferation assay, to determine their respective capacities to inhibit proliferation.
A human histiocytic lymphoma cell line (U937) was seeded into 30 mm^2 tissue culture wells, in the appropriate culture medium supplemented with 10% fetal calf serum at a density of 250 cells/mm^2. Six hours later the test compounds were added in the same culture medium to the cells to give a final concentration of 6 μM. Control wells contained cells supplemented with the same culture medium containing the equivalent amount of drug vehicle, which in this case was DMSO at a final concentration of 0.08%. After 72 hours in culture the cells were pulsed for 3 hours with methyl-^3H Thymidine (20 μCi/ml) and then harvested onto filter mats and DNA associated radioactivity counted. Results are expressed as percentage of control methyl-^3H Thydimine incorporation (n=6±1 stdv).
In general terms: Dividing cells build labelled thymidine or BrdU into new DNA.

Usually melting point stands for the temperature, or range, at which the solid turns liquid. The molecule `CCCC[C@H](CN(O)C=O)C(=O)N[C@H](C(=O)OC)C(C)(C)C` [Example 5, 2S-{2R-[(Formyl-hydroxy-amino)-methyl]-hexanoylamino}-3,3-dimethyl Butyric Acid Methyl Ester] registered a melting point of 63.5 to 64.5 °C. The molecule also returned an activity at 6 µM in data set [1] of 86%.
